Patent US20060062739A1 (priority 2004, published 2006)

Tests used:
[1] = system: mild to moderate asthma patients; details: human, in vivo
[2] = system: subjects with severe asthma treated with oral corticosteroids; assay: Lidocaine for reducing concurrent corticosteroids in steroid dependent severe asthma (Example 7); assay type: in vivo, human; details: interim, all patients past visit 7

CCN(CC)CC(=O)Nc1c(C)cccc1C [lidocaine, acetamide 2-(diethylamino)-N-(2,6-dimethylphenyl)]
bronchospasm (decrease in FEV1 >20% 30 min after aerosol administration) [1]: no reports of bronchospasm
loss of gag reflex [1]: No loss of gag reflex was reported
tolerability and safety overall [1]: no significant adverse events related to study drug
tracheal aspiration of food or liquid [1]: No case of tracheal aspiration of food or liquid was reported
relation of reported adverse events to treatment [2]: None of the reported adverse events were thought to be related to the lidocaine treatment
